Assay results published in patent EP0813872A1, “Berberine derivates for inhibiting hsp27 production” (Kureha Chemical Industry Co., Ltd., priority 1996, dated 1997).
Counter-ions that a name gives are not always drawn.

Test system: HSP27
Experiment: Inhibition of HSP27 production in heat-shocked human cancer cell lines (Western blotting)
Format: cell-based
Conditions: Western blot, 20 µM, control showed a single band
Description: The following various human cancer cell lines were cultured under 5% CO2, at 37 °C, except for the heat shock treatment period. The lung cancer cell line H69 (ATCC HTB 119), the gastric cancer cell line KATO III (ATCC HTB 103), the colon cancer cell line COLO 205 (ATCC CCL 222), and the prostate cancer cell line DU145 (ATCC HTB 81) were cultured in an RPMI1640 medium containing 10% inactivated fetal bovine serum (hereinafter referred to as FBS).
The uterine cancer cell line HeLa S3 (ATCC CCL 2.2) was cultured in an MEM medium containing 10% inactivated FBS.
The neuroblastoma cell line SK-N-MC (ATCC HTB 10) was cultured in an MEM medium containing non-essential amino acids (L-alanine = 8.9 mg/l, L-asparagine·H2O = 15.0 mg/l, L-aspartic acid = 13.3 mg/l, L-glutamic acid = 14.7 mg/l, glycine = 7.5 mg/l, L-proline = 11.5 mg/l and L-serine = 10.5 mg/l) and 10% inactivated FBS.
The berberine hydrochloride of the formula (III) (the final concentration = 20 µM: Matsuura Yakugyo) was added to each medium of the above human cancer cell lines 2 days after the inoculation. After the berberine hydrochloride treatment for 24 hours, a heat shock was applied at 45 °C for 15 minutes, and the cells were then cultured at 37 °C overnight. The control tests were carried out by performing the above procedures except that the berberine hydrochloride was not added.
The cells treated in the above (2) were homogenized, and the amounts of HSP27 produced were measured by the Western blotting method.
The cells treated in the above (2) were washed with phosphate buffered physiological saline [composition: KC1 = 0.2 g/l, KH2PO4 = 0.2 g/l, NaCl = 8 g/1, Na2HPO4 (anhydrous) = 1.15 g/l: hereinafter referred to as PBS(-): COSMO BIO CO. Catalogue No. 320-01], and 1 ml of lysis buffer [1.0% NP-40, 0.15 M sodium chloride, 50 mM Tris-HCl (pH 8.0), 5 mM-EDTA, 2 mM-N-ethylmaleimide, 2 mM phenylmethylsulfonyl fluoride, 2 µg/ml leupeptin, and 2 µg/ml pepstatin] was added. The whole was allowed to stand for 20 minutes on ice, and then centrifuged at 4 °C and 12000 rpm for 20 minutes. The resulting supernatant (10 µl) was added to 790 µl of PBS(-), and then 200 µl of a protein assay dye reagent solution (Dye Reagent Concentrate: Bio-Rad Laboratories, Catalogue No. 500-0006) was added. The whole was allowed to stand at room temperature for 5 minutes, and the absorbance at 595 nm was measured to determine the amounts of proteins.
For the SDS-polyacrylamide gel electrophoresis (SDS-PAGE) of the samples, the protein concentration of which were measured, aliquots containing the same amount of protein were loaded onto the gel. The SDS-PAGE was performed according to the Laemmli method (Laemmli, […]). After the electrophoresis, the blotting and then blocking were carried out. More particularly, the gel was brought into contact with a 0.45 µm nitrocellulose membrane (Schleicher & Schuell, Catalogue No. 401196) at room temperature and 100 V, using a protein-transferring apparatus (Trans-Blot Electrophoretic Transfer Cell: Bio-Rad), and blotting was carried out for 3 hours. The blotting buffer used was prepared by adding methyl alcohol to Tris-glycine buffer (pH 8.5) consisting of 0.025 M Tris and 0.192 M glycine (Tris Gly Running and Blotting Buffer; Enprotech, Mass., USA; Catalogue No. SA100034), so that the concentration of methyl alcohol became 20%. After blotting, the nitrocellulose membrane was incubated in a 10% skimmed milk-PBS(-) solution at room temperature for 30 minutes, to block non-specific bindings.
After blocking, the first antibody reaction was carried out on the nitrocellulose membrane, using a screener blotter (Sanplatec), and the anti-human-HSP27 mouse monoclonal antibody (StressGen, Victoria, B.C., Canada, Catalogue No. SPA-800). […]

SMILES: COc1ccc2cc3[n+](cc2c1OC)CCc1cc2c(cc1-3)OCO2 [berberine hydrochloride]
- band of the molecular weight of approximately 27 kDa (colon cancer cell line COLO 205): faint in comparison with the control tests
- band of the molecular weight of approximately 27 kDa (gastric cancer cell line KATO III): faint in comparison with the control tests
- band of the molecular weight of approximately 27 kDa (lung cancer cell line H69): no band of the molecular weight of approximately 27 kDa was detected
- band of the molecular weight of approximately 27 kDa (neuroblastoma cell line SK-N-MC): no band of the molecular weight of approximately 27 kDa was detected
- band of the molecular weight of approximately 27 kDa (prostate cancer cell line DU145): no band of the molecular weight of approximately 27 kDa was detected
- band of the molecular weight of approximately 27 kDa (uterine cancer cell line HeLa S3): no band of the molecular weight of approximately 27 kDa was detected
